Results on two molecules are retold here after patent publication US20120213766A1, “Anticancer Compounds from Vernonia Guineensis” (priority 2011, published 2012).

Assay [1] concerns B16 tumors. The assay can be described thus: In vivo antitumor activity. Particulars: B16 tumors in C57 mice; FIG. 5.
Assay [2] has as its system prostate cancer cell line PC-3. The experiment in a line: Cell proliferation assay (WST-1, 72 h). Type of assay: cell-based. Particulars: Prostate PC-3, average of two runs. The method, then: (§1) Breast cancer cells lines MDA-MD-231 and MCF-7, colon cancer cell line HCT-116, Leukaemia cell line HL-60, lung cancer cell line A549, melanoma cancer cell line A375, ovarian cancer cell line OVCAR3 and prostate cancer cell line PC-3 were treated with Compound A (Kuminol) and Compound B (Vernoginin) to determine the effects of the molecules on the proliferation of each cell line.
(§2) Established protocol was used to assay the anti-proliferation effects of these compounds against selected cancer cell lines. Each cell line is grown in RPMI/10% FBS/1% glutamine. On the day the experiment is initiated, cells are trypsinized and plated into 96 well plates in 50 ul of media. Compound is added approximately 18 hours after plating. Cells are plated at a density so that 72 hours post drug addition, the cells are in log phase (500-2000 cells/well). The compounds are solubilized in DMSO at a concentration of 100 mM, aliquoted and stored at −20^C. On the day of drug addition, the compounds are removed from the freezer and serially diluted in DMSO to concentrations as low as 100 nM. The compounds are then diluted 1:1000 into growth media (this is 2× the final concentration) including a DMSO alone control. 50 ul of media/compound is added to each well. The cells are allowed to proliferate for 72 hours. The experiment is terminated using WST-1 (Roche) and absorbance is read at 450 nm/690 nm IC50s are calculated in GraphPad Prism converting all values to percentage of control cell growth. Each cell line is run in duplicate and the average of the two runs is the calculated IC50 of each compound.
In general terms: Tetrazolium dyes change colour on reduction, which living cells bring about.

In assay [3] the test system is melanoma cancer cell line A375. The assay can be described thus: Cell proliferation assay (WST-1, 72 h). The assay is classed as cell-based. The settings on record: A-375, Human melanoma A375, average of two runs. How it is done: as §1, §2
In assay [4] the test system is lung cancer cell line A549. The assay can be described thus: Cell proliferation assay (WST-1, 72 h). The assay is classed as cell-based. Particulars: Homo sapiens, average of two runs. The method, then: as §1, §2
Assay [5] relates to Leukaemia cell line HL-60. The assay can be described thus: Cell proliferation assay (WST-1, 72 h). The assay is classed as cell-based. Particulars: Homo sapiens, Leukaemia HL-60, average of two runs. How it is done: as §1, §2
Assay [6] concerns ovarian cancer cell line OVCAR3. The experiment in a line: Cell proliferation assay (WST-1, 72 h). The assay is classed as cell-based. The settings on record: Homo sapiens, OVCAR-3, average of two runs. How it is done:
as §1, §2

For assay [7], the system named is Breast cancer cell line MCF-7. The experiment in a line: Cell proliferation assay (WST-1, 72 h). The assay is classed as cell-based. The settings on record: Homo sapiens, MCF7, Breast MCF-7, average of two runs. The method, then:
as §1, §2

Assay [8] deals with Breast cancer cell line MDA-MB-231. The assay can be described thus: Cell proliferation assay (WST-1, 72 h). The assay is classed as cell-based. Particulars: Homo sapiens, Breast MDA-MB-231, average of two runs. How it is done:
as §1, §2

In assay [9] the test system is colon cancer cell line HCT-116. The assay can be described thus: Cell proliferation assay (WST-1, 72 h). The assay is classed as cell-based. The settings on record: Homo sapiens, Colon HCT-116, average of two runs. How it is done: as §1, §2
Assay [10] relates to human leukaemia cell line HL-60. The assay can be described thus: Apoptosis determination (Annexin V and propidium iodide, flow cytometry). Type of assay: cell-based. The settings on record: 1x, 10x and 50x IC50, 0-24 h. The method, then:
The apoptotic effects of Kuminol (Compound A) and Vernoginin (Compound B) against the human leukaemia cell line HL-60 was determined. Annexin V and Propidium Iodide assay were carried out to determine whether Kuminol and Vernoginin have effect on cell cycle and induction of apoptosis in cancer cells. Cell death can result from either necrosis or apoptosis (programmed cell death).
The human leukaemia cell line HL60 were plated in RPMI1640 at 4×10^6 (2×10^5 cells/ml) and treated with 1×IC50, 10×IC50 and 50×IC50 Kuminol and Vernoginin. For cell cycle, 2 ml of the treated cells were stained with propidium iodide as per the manufactures instruction, aliquots (2 ml) of cells were removed and fixed at 3, 6, 24, 48 and 72 hours. For apoptosis, 2 ml aliquots of cells were removed at 0, 3, 6 and 24 hours and were stained with Annexin V FITC as per the manufacturer's instructions. The presence of apoptosis and cell cycle changes were detected using a Cytomics 500 Beckman Coulter Flow Cytometer (Coulter, Inc. Hialeah, Fla., USA
Background: In flow cytometry, cells or beads pass a laser one at a time.

In assay [11] the test system is prostate cancer, human melanoma, breast cancer and others. The experiment in a line: Anticancer screen, in vitro cell proliferation assay (MTT). The assay is classed as cell-based. The text has this: The extracts obtained as described above were fractionated by absorbing onto celite and then extracting with increasing polarities of ethyl acetate in hexane. Each fraction obtained was evaporated in-vacuo to remove the solvent and monitored by thin layer chromatography (TLC). […] The dried residue of each fraction was used in the anticancer assay to determine effect on cell proliferation. The active fraction was subjected to dry column chromatography (DCC) using normal phase silica gel activated for visualization with UV 254. This procedure led to the isolation of compounds of Formula I in pure form. The Compound A (Kuminol) and the other fractions obtained were further subjected to anticancer activity screening.
Further purification of second active fraction by use of Waters Sep Pak flash chromatography yielded compounds of the Formula II. Compound B (Vernoginin) inhibited prostate cancer, human melanoma, breast cancer and others in the in vitro cell proliferation assay.
The anticancer screen is based on the highly sensitive 3-(4,5-dimethylthiazol-2-yl)-2, S-diphenyl tetrazolium bromide (MTT) assay. […]
The anticancer activity of the extract obtained as described above was confirmed using the highly proliferative B16 cell line. […] Each of the fractions obtained was evaporated in-vacuo to remove the solvent and monitored by thin layer chromatography (TLC). […]

Consider `C=C1COC(O)/C(C(O/C=C(\C)C=O)C(=C)C(=O)O)=C\CCCC(O)C1=O` (centres unmarked) [Kuminol, 2-[(2,8-Dihydroxy-10-methylene-9-oxo-oxacycloundec-3-en-3-yl)-(2-methyl-3-oxo-propenyloxy)-methyl]-acrylic acid], for which the “suppression of tumors (in words)” value in [1] is “suppression effects”. Besides, the IC50 in [2] stood at 1000 ± 260 nM; in assay [3], 350 ± 40 nM; in assay [4] it was 2040 ± 1040 nM; in [5], 1550 ± 470 nM; in assay [6] it was 740 ± 310 nM; in assay [7], 670 ± 320 nM. The half-inhibitory concentration (IC50) in [8] amounted to 1010 ± 200 nM; in assay [9], 450 ± 7 nM. Besides, in [10], the “induction of apoptosis (in words)” value was “induce apoptosis”. For the same molecule, the “growth inhibition in anticancer assay (in words)” value in assay [11] is “exhibited growth inhibition”.

As to `C=CC(C)(CC(O)C(O)C(=C)C=O)C(O)C(C(=C)C(C)=O)C(=C)C(=O)CCO` (centres unmarked) [Vernoginin, 3,4,7,12,-Tetrahydroxy-6-methyl-2,9-dimethylene-8-(1-methylene-2-oxo-propyl)-10-oxo-6-vinyl-dodecanal], the IC50 worked out at 130 ± 150 nM in [3]; 1130 ± 380 nM in assay [4]; 1120 ± 750 nM in [5]; 480 ± 8 nM in assay [6]; 1560 ± 960 nM in assay [7]; 367 ± 30 nM in assay [8]. The IC50 in assay [9] was determined as 140 ± 150 nM. Further, the “induction of apoptosis (in words)” value in assay [10] is “induce apoptosis”. The “growth inhibition in anticancer assay (in words)” value in [11] is “inhibited”.

The IC50 is the point on the concentration scale where inhibition reaches its midpoint.
